Test results: patent US12023308B2, “Agents for reversing toxic proteinopathies” (THE BROAD INSTITUTE, INC., priority 2019, dated 2024)
“Also recorded” adds a separate entry of the source.

Key:
UPR = assay: RNA-Seq analysis of UPR branch activation in P cells; format: cell-based, human; details: BRD-4780 1 μM, THP 100 nM
Experimental: For RNA-seq experiments, N and P cells were plated in 12-well plates at 200,000 cells/well. Subsequently, 1 μM of BRD-4780 or DMSO were applied for 24 hr followed by 12 hr exposure to 100 nM of thapsigargin (THP) or DMSO for control. At the end of the experiment, RNA was extracted from treated cells and sequencing was performed as described below.
UPR branch activation analysis is presented as boxplots. Each box of the boxplot consists of genes comprising an individual UPR branch (Adamson et al., 2016). The expression of each gene in the group is plotted as mean of the scaled expression profiles obtained from three replicates.

MUC1-fs [1] = assay: BRD-4780 treatment in fs/+ knock-in mice, kidney MUC1-fs by IF and Western blot; format: in vivo, mouse
Experimental: (§1) Mice were anesthetized with 3 L/min 02 mixed with 3% isoflurane using the Combi-Vet® system (Rothacher Medical, Bern, Switzerland) for 5 min. Mouse kidneys were removed, sagittally cut to half and rapidly frozen in Tissue-Tek® O.C.T. Compound, Sakura® Finetek (OCT) (25608-930, VWR) using dry ice and 100% ethanol. Five […] sagittal cryosections (CM1950, Leica) were thaw mounted on microscope slides (Fisherbrand™ Superfrost™ Plus, Fisher Scientific) and kept in the cryostat (at −26° C.) for the duration of the sectioning process. Sections were immersion-fixed for 10 min in 4% PFA (15710, Electron Microscopy Sciences), then washed in PBS. The slides were then subjected to antigen retrieval by immersion in 10 mM citric acid buffer (pH=6), for 10 minutes at 95° C. […]
(§2) MUC1-fs and MUC1-wt mean intensities were calculated in kidney sections of mice treated with either vehicle or BRD-4780 (FIGS. 4A, 4B and 12A). As MUC1-fs and MUC1-wt levels varied in different kidney regions, and as sections might contain different portions of the different kidney regions, the levels of these proteins were analyzed only in NCC-positive distal convoluted tubules. […] Each fluorescent channel intensity was measured and a threshold was set for the identification of NCC positive cells. MUC1-fs and MUC1-wt levels were then calculated only in the NCC positive cells. […]

MUC1-wt = assay: BRD-4780 treatment in fs/+ knock-in mice, kidney MUC1-wt by IF; format: in vivo, mouse; details: daily oral gavage, 7 days
Experimental: as §1, §2

huntingtin (97 polyQ) = assay: Huntingtin-GFP (97 polyQ) accumulation in HEK cells; format: cell-based, human; details: 10 μM, 72 hours
Experimental: HEK293T cells were transfected with Huntingtin 97Q repeats fused to GFP and selected in 0.8 mg/mL G418 (Thermo Fisher Scientific®).
For GFP-Huntingtin experiments (FIGS. 15G and 15H), GFP signal in each cell was calculated using the “spot” identification feature, and total spot intensity for single cells was calculated and averaged for each well.
HEK293T stably expressing huntingtin 97Q-GFP were treated with 10 μM of BRD-4780 or vehicle DMSO, then monitored for GFP intensity by live cell imaging.

in vivo = details: mouse
Experimental: 1) A pharmacokinetic study was performed by WuXi AppTec (Hong Kong) in fasted male 129S2/SvPasCrl mice (study #400565-20170331-MPK) to determine the oral bioavailability of BRD-4780. A single dose of BRD-4780 was administered at 3.0 mg/kg intravenously (i.v.) or 10.0 mg/kg orally (p.o) in a clear solution of 10% HP-β-CD in saline. Blood was collected serially from n=3 mice per dose group at eight time points post dose administration (0.25, 0.5, 1, 2, 4, 6, 8 and 24 hours) and plasma was obtained by centrifugation. Plasma drug concentration was determined by LC-MS/MS and reported as BRD-4780 ng/mL for plasma and ng/mg for kidney tissue, and plotted as the mean±standard deviation concentration (FIG. 11A). Standard pharmacokinetic parameters were calculated (FIG. 11B).

MUC1-fs [2] = assay: MUC1-fs subcellular distribution (co-localization IF) in P cells; format: cell-based, human
Experimental: Cell nuclei were first identified using Hoechst staining, and cell number was calculated. Cytoplasmic regions were then detected around each nucleus based on combined channels. The cells from the edge of the field were eliminated from the analysis. For the quantification of protein abundance, the total signal intensity value for each antibody was calculated separately in the cell cytoplasm and the average signal per cell was calculated for each well. For quantitation of MUC1-fs cellular distribution and trafficking, the analysis was performed as described in FIG. 13A using the “spot” identification feature for the detection of MUC1-fs and the different organelles.
Detection of MUC1-fs in P cells at baseline and following secretory pathway perturbations was performed using immunoblot and IF analyses. […] For IF experiments (FIGS. 5B-5D and 13A-13C), P cells were plated in 384-well plates at 12,000 cells/well.

## CC(C)[C@@H]1[C@H]2CC[C@H](C2)[C@H]1N (racemic) [BRD-4780, 2-endo-amino-3-exo-isopropylbicyclo[2.2.1]heptane]
UPR
  UPR activation: significantly reduced UPR activation
MUC1-fs [1]; fs/+ mice, 50 mg/kg daily oral gavage, 7 days
  MUC1-fs in kidney tissue at highest dose: nearly indistinguishable from control (+/+) mouse kidneys
MUC1-fs [1]; mouse, in vivo
  MUC1-fs protein in mouse kidneys: dose-dependent removal of mutant MUC1-fs protein
MUC1-wt
  MUC1-wt in mouse kidneys: no effect on MUC1-wt
Huntingtin (97 polyQ)
  intracellular accumulation of GFP-tagged mutant huntingtin (97 polyQ): did not reverse or diminish the intracellular accumulation; also recorded: no effect on mutant huntingtin
In vivo; male, 129S2/SvPasCrl
  bioavailability: 119%
In vivo; po
  oral bioavailability (in words): excellent oral bioavailability
MUC1-fs [2]
  MUC1-fs subcellular distribution: reduced in the early secretory compartment
